Experiments:
[1] = Drug permeation rate test, in vitro diffusion through semipermeable membrane; format: in vitro ADME; conditions: ointments: 2# 1.2 wt %, 6# 1.2 wt %, benvitimod 1.0 wt %, 32° C.
Procedure: (§1) Test compounds: compound 2 #ointment, 1.2 wt %; compound 6 #ointment, 1.2 wt %; benvitimod ointment, 1.0 wt %;
[drawing 90] • (1) Preparation of semipermeable membrane: The semipermeable membrane, which had been prepared in advance, was taken out from the refrigerator; • (2) Preparation of receiving liquid: 100 mL of polyethylene glycol 400 solution was brought to a final volume of 250 mL with normal saline. The mixture was mixed well and stored at 4° C. Before each permeation in the receiving compartment, the system was preheated to 32° C.; • (3) In vitro diffusion test: A drug transdermal diffusion apparatus was used to fix the processed semipermeable membrane between the supply and receiving compartments. A constant temperature water bath circulation at 32° C. was maintained. The system was equilibrated for 30 min. Upon each replacement of the receiving liquid, the air at the lower layer was exhausted. About 0.5 g of the ointment was evenly smeared in the supply compartment. The system was stirred with a magnetic stirring at a rotation speed of 600 r/min. At 0.5, 1, 2, 4, 6, and 24 h, 1 mL of sample liquid was taken out from the receiving compartment, and simultaneously, an equal amount of fresh receiving liquid at the same temperature was added;
The sampling time points were 0.5, 1, 2, 4, 6, and 24 h, and 1 mL of sample was directly transferred into a liquid phase vial. Simultaneously, an equal amount of fresh receiving liquid at the same temperature was added. The liquid phase detection was conducted to calculate the drug permeation rate.

IMQ-induced psoriasis = IMQ-induced psoriasis in mice (PASI score); format: in vivo, KM mice; conditions: for PASI score (folds, scales, erythema): IMQ mice, 1.2 wt % in blank matrix, 62.5 mg topical
Procedure: • 1) The efficacy on IMQ-induced psoriasis in mice by compound 6 # was evaluated.
[drawing 91] • 2) Grouping • (1) Petrolatum+blank matrix group, 10 mice; • (2) IMQ+blank matrix group, 10 mice; • (3) IMQ+compound 6 #group (1.2 wt % in blank matrix), 10 mice. • IMQ: imiquimod • 3) Formulation • IMQ: 5% imiquimod (imiquimod was used for inducing psoriasis on the skin of modeling mice) 1.2% compound 6 #formulation was prepared in blank matrix • 4) Animals • Species and strain: SPF-grade KM mice, male • Weight: 35-40 g • Source: SPF (Beijing) Biotechnology Co., Ltd. • Housing conditions: air-conditioned room, with a temperature of 18-26° C. and a relative humidity of 20%-60%. • 5) Procedures
Skin pretreatment: Mice were given free access to water and food. After 5 days of adaptation in the animal room, the hair on the back of the mice within an area of 2 cm×2.5 cm was shaved. The area was treated with a depilatory cream for 30 s-1 min, and then the cream was removed with cotton pads. Randomization: 24 h after depilation, […] by weight: petrolatum+blank matrix group (10 mice); IMQ+blank matrix group (10 mice); IMQ+compound 6 #group (1.2% compound in blank matrix) (10 mice).
Modeling and treatment: 62.5 mg of 5% imiquimod or petrolatum in the morning was administered to the mice in the morning. In the afternoon, 62.5 mg of blank matrix or 1.2% compound 6 # was smeared on the back.
Recording: Before modeling in the morning, the condition of the skin folds, erythema, and scales was observed, scored, and photographed daily, and the mouse PASI score was calculated.

[2] = Ointment diffusion test, ex vivo rabbit skin; format: in vitro ADME; conditions: ointments: 2# 1.2 wt %, 6# 1.2 wt %, benvitimod 1.0 wt %, 32° C.
Procedure: as §1
• (1) Preparation of ex vivo rabbit skin • (2) Preparation of receiving liquid: 100 mL of polyethylene glycol 400 solution was brought to a final volume of 250 mL with normal saline. The mixture was mixed well and stored at 4° C. Before each permeation in the receiving compartment, the system was preheated to 32° C. • (3) In vitro transdermal test: A drug transdermal diffusion apparatus was used to fix the processed rabbit skin between the supply and receiving compartments, with the stratum corneum facing the supply compartment. A constant temperature water bath circulation at 32° C. was maintained. The system was equilibrated for 30 min. Upon each replacement of the receiving liquid, the air at the lower layer was exhausted, and the liquid droplets on the skin surface were removed with paper. 0.5 g of the ointment was evenly smeared in the supply compartment. The system was stirred with a magnetic stirring at a rotation speed of 600 r/min. At 0.5, 1, 2, 3, 4, 5, 7, 9, 12, and 24 h, 1 mL of sample liquid was taken out from the receiving compartment and transferred into a liquid phase vial, and simultaneously, an equal amount of fresh receiving liquid at the same temperature was added. The liquid phase detection was conducted to calculate the drug permeation rate.

SMILES | 24-hour drug permeation rate (rank order) [1] | PASI score (folds, scales, erythema) (IMQ-induced psoriasis; Day 1) | PASI score (folds, scales, erythema) (IMQ-induced psoriasis; Day 2) | PASI score (folds, scales, erythema) (IMQ-induced psoriasis; Day 3) | PASI score (folds, scales, erythema) (IMQ-induced psoriasis; Day 4) | PASI score (folds, scales, erythema) (IMQ-induced psoriasis; Day 5) | PASI score (folds, scales, erythema) (IMQ-induced psoriasis; Day 6) | PASI score (folds, scales, erythema) (IMQ-induced psoriasis; Day 7) | therapeutic effect versus IMQ+blank matrix group (IMQ-induced psoriasis; day 7, 1.2 wt % in blank matrix) | 24-hour drug permeation rate (rank order) [2]
Oc1cc(/C=C/c2ccc(F)cc2)cc(O)c1C1CCCCC1 [Compound 6, (E)-2-cyclohexyl-5-(4-fluorostyryl)-1,3-benzenediol] | benvitimod >2 #>6 # | 3.90 | 4.30 | 6.10 | 6.30 | 6.50 | 5.80 | 5.60 | significantly superior therapeutic effect | benvitimod >2 #>6 #
CC(C)c1c(O)cc(/C=C/c2ccccc2)cc1O [Reference 1#, Benvitimod, reference compound] | benvitimod >2 #>6 # |  |  |  |  |  |  |  |  | benvitimod >2 #>6 #

From patent US20250382250A1, “STILBENE DERIVATIVE AS AHR AGONIST AND USE THEREOF” (NANJING GRITPHARMACO., LTD., priority 2022, published 2025)
